The text below walks through data of patent US20250170100A1, “MONOACYLGLYCEROL LIPASE INHIBITORS AND USE THEREOF FOR THE TREATMENT OF ANXIETY AND RELATED CONDITIONS” (Psy Therapeutics, Inc., priority 2021, published 2025).

Like-named read-outs stand apart in the source and are kept apart here.

Assay type in all cases: biochemical
In experiment [1] the target is human recombinant FAAH (Homo sapiens (Human), UniProt O00519). Description: FAAH counter screen (Fatty Acid Amide Hydrolase Inhibitor Screening Assay Kit). How it is done:
MAGL inhibitor compounds were also counter-screened for FAAH inhibition potency using the following assay. Assessment of FAAH inhibition was performed using Fatty Acid Amide Hydrolase Inhibitor Screening Assay Kit (Cayman Item No. 10005196) following manufacture's instruction with some modifications. The kit utilizes human recombinant FAAH and the fluorescent substrate, AMC Arachidonoyl amide (AAMCA). 5 μL of assay buffer (125 mM Tris, pH 9.0, 1 mM EDTA, i.e. ethylenediaminetetraacetic acid) was added to a 384-well black plate (Corning, 3573). Test compounds and control inhibitor JZL-195 (Cayman Chemical, 13668) were tested in 10-concentration IC50 mode with 3-fold serial dilution at a starting concentration of 100 μM and 10 μM, respectively. 300 nL or 30 nL of test compounds were delivered into a 384-well black plate (Corning, 3573) using a Labcyte Echo, followed by addition of 15 μL of FAAH enzyme (Cayman, 700302) in assay buffer. After a 5-minute pre-incubation at room temperature, 10 μL of AAMCA was added in assay buffer to start the reaction. Final concentration of FAAH enzyme is not specified and AAMCA substrate was used at the 20 μM. After these dilutions, the final concentration of the test compounds ranged from 100 μM to 5.08 nM or 10 μM down to 0.508 nM. The reaction was allowed to progress for 60 minutes, while the plate was read on an Envision plate reader at an Ex/Em of 350/460 nm with readings every minute. The data was analyzed in Microsoft Excel, using the slope between 30 and 59 minutes. The average of the no-enzyme wells (background) was subtracted from the data. The background-subtracted slope data was converted to % activity using the average of wells with enzyme and DMSO vehicle. IC50 values were calculated using GraphPad software (Sigmoidal dose response, variable slope equation).
Compounds listed in Table D2 were tested in the FAAH Counterscreen of Example 19
A general note: The purpose of a counterscreen is to sort out artefacts and off-target activity.

Experiment [2] has as its target T1, human MAGL (Homo sapiens (Human), UniProt Q99685). Description: MAGL inhibition potency assay with 4NPA substrate (methods of Table C). The note with it: Method 2: Cayman Chemical MAGL enzyme, 10 nM.
Target sequence in this assay (Q99685 2-303): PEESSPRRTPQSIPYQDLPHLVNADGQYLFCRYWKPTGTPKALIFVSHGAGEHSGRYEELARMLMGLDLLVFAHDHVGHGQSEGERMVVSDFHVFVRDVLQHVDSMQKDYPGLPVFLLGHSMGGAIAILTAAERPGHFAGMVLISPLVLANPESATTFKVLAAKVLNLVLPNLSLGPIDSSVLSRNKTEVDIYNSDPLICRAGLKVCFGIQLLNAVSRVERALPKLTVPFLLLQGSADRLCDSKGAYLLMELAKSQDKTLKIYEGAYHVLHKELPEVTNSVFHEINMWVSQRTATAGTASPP
Experiment [3] deals with T1, human MAGL. Description: MAGL reversible inhibition assay (washout). The following applies: for A: degree to which MAGL enzymatic activity returned following washout: pre-washout compound concentration: 1 μM. How it is done:
The reversible mechanism of MAGL inhibition of a test compound of Formula (I) can be determined. Flag-tagged MAGL enzyme will be immobilized on anti-Flag beads. Immobilized enzyme will be incubated+/−inhibitor at a dose that produces complete inhibition. Colorimetric substrate (4-NPA) will be added and the reaction monitored on a plate reader for 30 minutes to verify complete inhibition. Immobilized enzyme will then be washed thoroughly to remove the inhibitor, and fresh substrate will be added. The reaction will be monitored for an additional 30 minutes; returning enzymatic activity will indicate reversibility of inhibition.
MAGL enzyme was incubated for 30 minutes in the presence of 40× the IC50 concentration of inhibitor. Enzyme+inhibitor mix was then diluted 40-fold so that the final concentration of the inhibitor equaled the IC50 concentration. Substrate was added and the reaction was monitored for 30 minutes.
Target sequence in this assay (Q99685 whole entry): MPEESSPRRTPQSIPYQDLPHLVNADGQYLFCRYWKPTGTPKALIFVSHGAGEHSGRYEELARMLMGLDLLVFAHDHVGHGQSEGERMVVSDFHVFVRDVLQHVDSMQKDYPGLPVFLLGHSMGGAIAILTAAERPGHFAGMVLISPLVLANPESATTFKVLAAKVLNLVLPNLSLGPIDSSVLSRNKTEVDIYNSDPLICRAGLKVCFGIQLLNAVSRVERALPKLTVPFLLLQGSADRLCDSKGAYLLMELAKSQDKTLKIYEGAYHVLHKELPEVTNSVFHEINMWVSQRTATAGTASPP

The mark [4] stands for this setting: Method A: starting concentration of 100 μM.

Sequence of human recombinant FAAH (O00519 whole entry): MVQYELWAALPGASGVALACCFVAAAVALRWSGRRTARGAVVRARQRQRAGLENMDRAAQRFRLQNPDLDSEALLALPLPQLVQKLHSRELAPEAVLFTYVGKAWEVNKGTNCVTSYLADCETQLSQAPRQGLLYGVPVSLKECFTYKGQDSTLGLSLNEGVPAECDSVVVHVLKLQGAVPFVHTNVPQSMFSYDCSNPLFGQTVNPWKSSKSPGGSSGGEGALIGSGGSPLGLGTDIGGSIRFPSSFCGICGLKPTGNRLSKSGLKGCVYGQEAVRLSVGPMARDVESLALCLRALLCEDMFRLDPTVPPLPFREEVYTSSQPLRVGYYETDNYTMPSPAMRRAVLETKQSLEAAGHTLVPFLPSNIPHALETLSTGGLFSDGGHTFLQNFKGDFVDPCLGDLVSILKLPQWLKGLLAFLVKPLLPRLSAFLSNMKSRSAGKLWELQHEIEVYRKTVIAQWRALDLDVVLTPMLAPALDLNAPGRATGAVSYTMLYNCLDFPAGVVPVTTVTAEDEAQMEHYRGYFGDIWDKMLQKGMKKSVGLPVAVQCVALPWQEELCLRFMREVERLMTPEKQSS

For the molecule `Cc1ccccc1-n1nc(C2CC3(C2)CN(C(=O)c2cc(O)ccc2F)C3)cc1C` [Compound 117], in experiment [1] (setting [4]), the IC50 is above 10 µM. On the same count and under the same terms, with `Cc1cc(C2CC3(C2)CN(C(=O)c2ccccc2F)C3)n(-c2ccccc2C)n1` [Compound 122, (2-fluorophenyl)(6-(3-methyl-1-(o-tolyl)-1H-pyrazol-5-yl)-2-azaspiro[3.3]heptan-2-yl)methanone] the figure was above 10 µM.

As to `COc1ccc(F)c(C(=O)N2CC3(CC(c4cc(C)nn4-c4ccccc4C)C3)C2)c1` [Compound 123, (2-fluoro-5-methoxyphenyl)(6-(3-methyl-1-(o-tolyl)-1H-pyrazol-5-yl)-2-azaspiro[3.3]heptan-2-yl)methanone], the IC50 in experiment [1] (setting [4]) and in experiment [2] (read-out: Potency (MAGL inhibition)) was above 10 µM in each case. In the case of `Cc1cc(C2CC3(C2)CN(C(=O)c2cccc(O)c2)C3)n(-c2ccccc2C)n1` [Compound 125, (3-hydroxyphenyl)(6-(3-methyl-1-(o-tolyl)-1H-pyrazol-5-yl)-2-azaspiro[3.3]heptan-2-yl)methanone], in experiment [1] (setting [4]), the IC50 is above 10 µM. Take `Cc1cc(C2CC3(C2)CN(C(=O)c2c(F)ccc(O)c2F)C3)n(-c2ccccc2C)n1` [Compound 127, (2,6-difluoro-3-hydroxyphenyl)(6-(3-methyl-1-(o-tolyl)-1H-pyrazol-5-yl)-2-azaspiro[3.3]heptan-2-yl)methanone]: the IC50 in experiment [1] (setting [4]) is above 10 µM. With `O=C(c1cc(O)ccc1F)N1CC2(CC(n3cc(C4CC4)c(-c4ccccc4F)n3)C2)C1` [Compound 493], the IC50 in experiment [1] (Method B: starting concentration of 10 μM) was above 10 µM. For the same molecule, the “A: degree to which MAGL enzymatic activity returned following washout” value (“A: degree” for short) in experiment [3] was determined as 47. As for `Cc1cnn(C2CC3(C2)CN(C(=O)c2cc(O)ccc2F)C3)c1-c1cc(F)ccc1Cl` [Compound 519, {6-[5-(2-chloro-5-fluorophenyl)-4-methyl-1-pyrazolyl]-2-aza-2-spiro[3.3]heptyl}(2-fluoro-5-hydroxyphenyl) methanone], the “A: degree” value in experiment [3] is 155. On to `Cc1cn(C2CC3(C2)CN(C(=O)c2cc(O)ccc2F)C3)nc1-c1cc(F)ccc1Cl` [Compound 520, {6-[3-(2-chloro-5-fluorophenyl)-4-methyl-1-pyrazolyl]-2-aza-2-spiro[3.3]heptyl}(2-fluoro-5-hydroxyphenyl) methanone], for which the “A: degree” value in experiment [3] came out at 100. Turning to `O=C(Oc1ccc([N+](=O)[O-])cc1)N1CCC(C(O)(c2ccc3c(c2)OCO3)c2ccc3c(c2)OCO3)CC1` [JZL-184, reference compound], the “A: degree” value in experiment [3] is given as “complete lack of return of MAGL enzymatic activity”. In addition, the “B: % MAGL activity returning after washout” value in experiment [3] (relative to control, immediately following a 30 minute washout) is below 1%. With “(2-fluoro-5-hydroxyphenyl) (6-(3-methyl-1-(o-tolyl)-1H-pyrazol-5-yl)-2-azaspiro[3.3]hept-5-en-2-yl) methanone [Compound 120]”, the IC50 was above 10 µM in experiment [1] (setting [4]) and 0.15 to 0.5 µM in experiment [2] (read-out: MAGL Potency (Detection Method)).
